Laboratory results taken from patent US20130281400A1, “Metabolic Downregulation for Cell Survival” (Wake Forest University Health Sciences, priority 2010, published 2013).

Tests used:
[1] = tested on: C2C12 cells, murine myoblasts; assay: MTS assay of metabolic activity of viable cells under hypoxia (0.1% O2) with daily adenosine; assay type: cell-based
Experimental: 500 μL of a cell suspension (C2C12 cells, murine myoblasts) in high glucose Dulbecco's modified Eagle's medium (DMEM, Gibco) containing 10% FBS, 500 U/mL penicillin and 500 μg/mL streptomycin was placed in each well of a 48-well culture plate at a density of 1052 (FIG. 2) and 2105 (FIG. 3) cells/cm^2. Cells were incubated for 24 hr in normoxic conditions (21% O2, 37° C.) prior to placement in a hypoxic chamber. At day 0, the plates designated as the hypoxic group were transferred to the hypoxic chamber (0.1% O2). […] Another group receiving daily doses of adenosine ([…], achieved by serial dilution) was incubated for up to 7 days under hypoxia and then placed back into normoxic conditions without additional supply of adenosine. Adenosine was refreshed by the daily exchange of media in which adenosine was completely dissolved. Media to be used under hypoxia was placed in the hypoxic chamber 24 hr prior to use for deoxygenation down to 2% O2. The metabolic activity of viable cells at each pre-determined time point was assessed using an MTS assay, which measures mitochondrial activity of cells. Adenosine was used with C2C12 at passage 17, the murine myoblast cell lines, because of their relatively high metabolic activity and proliferation rate. […] Based on the microscopic observations of these cell stained with Giemsa, it was not seen that whole population of cells completely reached the state of necrosis up to the latest time point tested, as a few populations of attached cells were still observed. It is expected that those remaining cells eventually die. […] The effect of dose was also evaluated on a degree of cellular activity (FIG. 3). […] Based on this outcome, the minimum effective concentration of adenosine appears to be about 1 mM under this experimental condition. The reason for 1 mM treated cells not declining up to the duration tested may potentially have been the lower starting number of cells. […] Finally, the long term effect of adenosine was tested on resuming its proliferation after its supply is stopped. The duration tested under the effect of adenosine was 22 days, as the angiogenesis process is known to take 2-3 weeks (Cotton, 1996, Trends Biotechnol, 14(5):158-62; […] et al., 1996, Biomaterials, 17(3):277-84) for completion.

[2] = tested on: muscle tissue; assay: adenosine injected into muscle tissue; assay type: in vivo
Text: Adenosine, a nucleoside known for its function as an energy transferring molecule, is also known to function as a modulator of hypoxia-induced ion-channel arrest, which eventually leads to lowering of ATP consumption, and thus oxygen demand. Moreover, it is also known to stimulate angiogenesis. Thus, the present invention provides for the application of adenosine to cell-seeded scaffolds under the hypoxic condition to improve cell survival rate via the downregulation of metabolic rate, and thus lowering oxygen demand and consumption. As contemplated herein, agonists to adenosine may also be used in a similar manner to lower the oxygen demand of cells and tissues. […] Adenosine may be administered alone as a composition or within a formulation, as would be understood by those skilled in the art.

## Nc1ncnc2c1ncn2[C@@H]1O[C@H](CO)[C@@H](O)[C@H]1O [adenosine]
[1]; 1 mM adenosine, hypoxia, FIG. 3
  cellular metabolic activity pattern at 1 mM adenosine: showed a similar pattern with the cells grown in the hypoxic condition without supply of adenosine
[1]; 22 days under the effect of adenosine, various doses, FIG. 4
  long term effect: resuming proliferation after adenosine supply is stopped: still demonstrated the ability to restore its normal proliferation rate
[1]; C2C12 passage 17, hypoxia 0.1% O2, daily adenosine up to 7 days, FIG. 2
  cellular (metabolic) activity under hypoxic conditions: maintained a steady state of cellular activity
[1]; adenosine dose increased from 1 to 10 mM, hypoxic conditions, FIG. 3
  effect of dose on degree of cellular activity: an escalation of steady hypometabolic state was maintained under hypoxic conditions
[1]; adenosine removed at day 7, cells returned to normoxic conditions, FIG. 2
  resumption of normal metabolic activity after removal of adenosine: resumed their normal metabolic activity two days after adenosine was removed at day 7
[1]; hypoxic conditions, dose study, FIG. 3
  minimum effective concentration of adenosine: about 1 mM
[2]
  cellular viability and tissue architecture: preservation of cellular viability and tissue architecture
